Where two headings read alike, the source gives them in different places.

This assay deals with KRAS G12C and cRAF (Ras-binding domain) interaction (Homo sapiens (Human), UniProt P01116, C118S/C51S/C80L/G12C). In words: Inhibition of KRAS G12C and cRAF binding (AlphaScreen). In outline:
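IC50 values come from 4-parameter nonlinear regression of AlphaScreen signal (680 nm excitation, 570 nm emission). Compound plates sat 19-20 h at room temperature before RBD and donor/acceptor beads were added in Hepes pH 7.4 buffer with 150 mM NaCl, 5 mM MgCl2, 2% DMSO for 60-90 min; biotin-AviTag-GST replaced RBD to flag assay-technology interferers.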
A general note: Bead proximity is the source of the signal in Alpha formats.

Setting [1] is: GMPPNP-loaded KRAS G12C, 19-20 hours incubation with compound, read-out: IC50 (Inhibition of KRAS G12C and cRAF Binding).
Where [2] appears, read: additional exemplary compounds, KRAS G12C and cRAF binding, read-out: RAF1 RBD IC50.

KRAS G12C and cRAF (Ras-binding domain) interaction, sequence (P01116 other isoform, or with tags, fused parts or gaps G12C/C51S/C80L/C118S): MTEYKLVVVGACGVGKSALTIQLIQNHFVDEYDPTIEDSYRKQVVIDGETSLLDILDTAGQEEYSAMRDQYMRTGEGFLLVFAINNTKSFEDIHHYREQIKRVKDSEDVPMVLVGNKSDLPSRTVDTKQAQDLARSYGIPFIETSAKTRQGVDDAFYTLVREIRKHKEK

As to `C#Cc1c(F)ccc2cccc(-c3ncc4c(N(C)[C@@H]5CCN(C(=O)/C=C/CN(C)C)C5)nc(OC[C@@]56CCCN5C[C@H](F)C6)nc4c3F)c12` [Example 201, (E)-4-(dimethylamino)-1-((R)-3-((7-(8-ethynyl-7-fluoronaphthalen-1-yl)-8-fluoro-2-(((2R,7aS)-2-fluorohexahydro-1H-pyrrolizin-7a-yl)methoxy)pyrido[4,3-d]pyrimidin-4-yl)(methyl)amino)pyrrolidin-1-yl)but-2-en-1-one], the IC50 under setting [1] is under 10 nM.

`CN(c1nc(OC[C@@]23CCCN2C[C@H](F)C3)nc2c(F)c(-c3cccc4cccc(Cl)c34)ncc12)[C@@H]1CCN(C(=O)C#C[C@@]2(C)CCCN2C)C1` [Example 197, 1-((R)-3-((7-(8-chloronaphthalen-1-yl)-8-fluoro-2-(((2R,7aS)-2-fluorohexahydro-1H-pyrrolizin-7a-yl)methoxy)pyrido[4,3-d]pyrimidin-4-yl)(methyl)amino)pyrrolidin-1-yl)-3-((R)-1,2-dimethylpyrrolidin-2-yl)prop-2-yn-1-one]: under setting [1], the IC50 was in the range of 10 to 100 nM.

For the molecule `C=CC(=O)N1CC[C@H](C)[C@H](Nc2nc(OC[C@@]34CCCN3C[C@H](F)C4)nc3c(F)c(-c4cccc5cccc(Cl)c45)ncc23)C1`, the IC50 under setting [2] is over 500 nM.

Consider `C[C@H](F)c1noc(/C=C/C(=O)N2CC[C@@H](N(C)c3nc(OC[C@@]45CCCN4C[C@H](F)C5)nc4c(F)c(-c5cccc6cccc(Cl)c56)ncc34)C2)n1` [Example 77, (E)-1-((R)-3-((7-(8-chloronaphthalen-1-yl)-8-fluoro-2-(((2R,7aS)-2-fluorohexahydro-1H-pyrrolizin-7a-yl)methoxy)pyrido[4,3-d]pyrimidin-4-yl)(methyl)amino)pyrrolidin-1-yl)-3-(3-((S)-1-fluoroethyl)-1,2,4-oxadiazol-5-yl)prop-2-en-1-one], for which the concentration for half-maximal inhibition (IC50) under setting [1] was under 10 nM.

Turning to `CN(C)C/C=C/C(=O)N1CC(CN(C)c2nc(OCC34CCCN3CCC4)nc3c(F)c(-c4cccc5cccc(Cl)c45)ncc23)C1`, the IC50 under setting [2] lay in the range of 10 to 100 nM.

Consider `C=CC(=O)C[C@H](C)N(C)c1nc(OC[C@@H]2CCCN2C)nc2c1CCN(c1cccc3ccccc13)C2`, for which the IC50 under setting [2] was over 500 nM.

Take `C=CC(=O)N1[C@H]2CC[C@@H]1[C@@H](N(C)c1nc(OC[C@@]34CCCN3C[C@H](F)C4)nc3c1CCN(c1cccc4cccc(Cl)c14)C3)C2`: under setting [2], the IC50 is over 500 nM.

On to `CN(c1nc(OCC23CCCN2CCC3)nc2c1CCN(c1cccc3cccc(Cl)c13)C2)[C@@H]1CCN(C(=O)/C=C/CN2CC(F)C2)C1`, for which, under setting [2], the IC50 was in the range of 10 to 100 nM.

As for `C=CC(=O)N1CCC(CNc2nc(OC[C@@]34CCCN3C[C@H](F)C4)nc3c(F)c(-c4cccc5cccc(Cl)c45)ncc23)C1` (stereo partly drawn), the IC50 under setting [2] was over 500 nM.

`C#Cc1c(F)ccc2cccc(-c3ncc4c(N(C)[C@@H]5CCN(C(=O)C=C)C5)nc(OC[C@@]56CCCN5C[C@H](F)C6)nc4c3F)c12` [Example 187, 1-((R)-3-((7-(8-ethynyl-7-fluoronaphthalen-1-yl)-8-fluoro-2-(((2R,7aS)-2-fluorohexahydro-1H-pyrrolizin-7a-yl)methoxy)pyrido[4,3-d]pyrimidin-4-yl)(methyl)amino)pyrrolidin-1-yl)prop-2-en-1-one]: the IC50 under setting [1] was under 10 nM.

As to `C=CC(=O)N1C[C@H](C)[C@@H](N(C)c2nc(OC[C@@]34CCCN3C[C@H](F)C4)nc3c(F)c(-c4cccc5cccc(Cl)c45)ncc23)C1` [Example 189, 1-((3R,4S)-3-((7-(8-chloronaphthalen-1-yl)-8-fluoro-2-(((2R,7aS)-2-fluorotetrahydro-1H-pyrrolizin-7a(5H)-yl)methoxy)pyrido[4,3-d]pyrimidin-4-yl)(methyl)amino)-4-methylpyrrolidin-1-yl)prop-2-en-1-one], the IC50 under setting [1] fell in the range of 100 to 500 nM.

Regarding `C#Cc1c(F)ccc2cccc(-c3ncc4c(N(C)[C@@H]5CCN(C(=O)/C=C/[C@H]6CCN6C)C5)nc(OC[C@@]56CCCN5C[C@H](F)C6)nc4c3F)c12` [Example 200, (E)-1-((R)-3-((7-(8-ethynyl-7-fluoronaphthalen-1-yl)-8-fluoro-2-(((2R,7aS)-2-fluorohexahydro-1H-pyrrolizin-7a-yl)methoxy)pyrido[4,3-d]pyrimidin-4-yl)(methyl)amino)pyrrolidin-1-yl)-3-((R)-1-methylazetidin-2-yl)prop-2-en-1-one], the IC50 under setting [1] is under 10 nM.

On to `CN1CCC[C@H]1COc1nc2c(c(N(C)[C@@H]3CCN(C#N)C3)n1)CCN(c1cccc3cccc(Cl)c13)C2` [Example 33, (R)-3-((7-(8-chloronaphthalen-1-yl)-2-(((S)-1-methylpyrrolidin-2-yl)methoxy)-5,6,7,8-tetrahydropyrido[3,4-d]pyrimidin-4-yl)(methyl)amino)pyrrolidine-1-carbonitrile], for which the IC50 under setting [1] lay in the range of 100 to 500 nM.

Take `C=CC(=O)N1CC[C@@H](Nc2nc(OC[C@@]34CCCN3C[C@H](F)C4)nc3c(F)c(-c4cccc5cccc(Cl)c45)ncc23)[C@H]1C` [Example 190, 1-((2R,3R)-3-((7-(8-chloronaphthalen-1-yl)-8-fluoro-2-(((2R,7aS)-2-fluorotetrahydro-1H-pyrrolizin-7a(5H)-yl)methoxy)pyrido[4,3-d]pyrimidin-4-yl)amino)-2-methylpyrrolidin-1-yl)prop-2-en-1-one]: the IC50 under setting [1] fell in the range of 100 to 500 nM.

In the case of `C=CC(=O)N1CC(CN(C)c2nc(OC[C@@]34CCCN3C[C@H](F)C4)nc3c(F)c(-c4cccc5cccc(Cl)c45)ncc23)C1`, the IC50 under setting [2] lay in the range of 10 to 100 nM.

Consider `C=CC(=O)N1CC[C@@H](N(C)c2nc(OC[C@@]34CCCN3C[C@H](F)C4)nc3c2CCN(c2cccc4ccc(F)c(Cl)c24)C3)C1`, for which the IC50 under setting [2] fell in the range of 10 to 100 nM.

Turning to `O=C(/C=C/CN1CCOCC1)N1C[C@H]2C[C@@H]1CN2c1nc(OC[C@@]23CCCN2C[C@H](F)C3)nc2c(F)c(-c3cccc4cccc(Cl)c34)ncc12`, under setting [2], the IC50 was over 500 nM.

With `Cc1nccc(/C=C/C(=O)N2CCC[C@@H](N(C)c3nc(OC[C@@]45CCCN4C[C@H](F)C5)nc4c(F)c(-c5cccc6cccc(Cl)c56)ncc34)C2)n1` [Example 198, (E)-1-((R)-3-((7-(8-chloronaphthalen-1-yl)-8-fluoro-2-(((2R,7aS)-2-fluorotetrahydro-1H-pyrrolizin-7a(5H)-yl)methoxy)pyrido[4,3-d]pyrimidin-4-yl)(methyl)amino)piperidin-1-yl)-3-(2-methylpyrimidin-4-yl)prop-2-en-1-one], the IC50 under setting [1] was over 500 nM.

For `C=CC(=O)N1CC[C@@H](N(CC(F)F)c2nc(OC[C@@]34CCCN3C[C@H](F)C4)nc3c(F)c(-c4cccc5cccc(Cl)c45)ncc23)C1` [Example 194, 1-((R)-3-((7-(8-chloronaphthalen-1-yl)-8-fluoro-2-(((2R,7aS)-2-fluorotetrahydro-1H-pyrrolizin-7a(5H)-yl)methoxy)pyrido[4,3-d]pyrimidin-4-yl)(2,2-difluoroethyl)amino)pyrrolidin-1-yl)prop-2-en-1-one], the IC50 is 10 to 100 nM.

On to `CC(C)c1noc(/C=C/C(=O)N2C3CC2CN(c2nc(OC[C@@]45CCCN4C[C@H](F)C5)nc4c(F)c(-c5cccc6cccc(Cl)c56)ncc24)C3)n1`, for which the IC50 under setting [2] was over 500 nM.

Turning to `C=CC(=O)N1CC[C@@H](N(C)c2nc(OC[C@@]34CCCN3C[C@H](F)C4)nc3c(F)c(-c4cccc5cccc(C6CC6)c45)ncc23)C1` [Example 304, 1-((R)-3-((7-(8-cyclopropylnaphthalen-1-yl)-8-fluoro-2-(((2R,7aS)-2-fluorotetrahydro-1H-pyrrolizin-7a(5H)-yl)methoxy)pyrido[4,3-d]pyrimidin-4-yl)(methyl)amino)pyrrolidin-1-yl)prop-2-en-1-one], the IC50 under setting [1] was over 500 nM.

Regarding `Cc1c(F)ccc2cccc(-c3ncc4c(N(C)[C@@H]5CCN(C(=O)/C=C/CN(C)C)C5)nc(OC[C@@]56CCCN5C[C@H](F)C6)nc4c3F)c12` [Example 202, (E)-4-(dimethylamino)-1-((R)-3-((8-fluoro-7-(7-fluoro-8-methylnaphthalen-1-yl)-2-(((2R,7aS)-2-fluorotetrahydro-1H-pyrrolizin-7a(5H)-yl)methoxy)pyrido[4,3-d]pyrimidin-4-yl)(methyl)amino)pyrrolidin-1-yl)but-2-en-1-one], the IC50 under setting [1] was in the range of 10 to 100 nM.

Turning to `Cc1ncc(/C=C/C(=O)NCCN(C)c2nc(OCC34CCCN3CCC4)nc3c2CCN(c2cccc4cccc(Cl)c24)C3)o1`, the IC50 under setting [2] was 100 to 500 nM.

`C=CC(=O)N1C[C@H](N(C)c2nc(OC[C@@]34CCCN3C[C@H](F)C4)nc3c(F)c(-c4cccc5cccc(Cl)c45)ncc23)C[C@H]1CC#N`: the IC50 under setting [2] was 10 to 100 nM.

As to `C=CC(=O)N1CC(CNc2nc(OC[C@@]34CCCN3C[C@H](F)C4)nc3c2CCN(c2cccc4cccc(Cl)c24)C3)C1`, under setting [2], the IC50 was over 500 nM.

With `CN(c1nc(OCC23CCCN2CCC3)nc2c(F)c(-c3cccc4cccc(Cl)c34)ncc12)[C@@H]1CCN(C(=O)/C=C/c2nc(C3(C)CC3)no2)C1` [Example 101, (R,E)-1-(3-((7-(8-chloronaphthalen-1-yl)-8-fluoro-2-((hexahydro-1H-pyrrolizin-7a-yl)methoxy)pyrido[4,3-d]pyrimidin-4-yl)(methyl)amino)pyrrolidin-1-yl)-3-(3-(1-methylcyclopropyl)-1,2,4-oxadiazol-5-yl)prop-2-en-1-one], the IC50 under setting [1] was under 10 nM.

Consider `C#Cc1c(F)ccc2cccc(-c3ncc4c(N(C)[C@@H]5CCN(C(=O)/C=C/c6ccnc(C)n6)C5)nc(OC[C@@]56CCCN5C[C@H](F)C6)nc4c3F)c12` [Example 278, (E)-1-((R)-3-((7-(8-ethynyl-7-fluoronaphthalen-1-yl)-8-fluoro-2-(((2R,7aS)-2-fluorotetrahydro-1H-pyrrolizin-7a(5H)-yl)methoxy)pyrido[4,3-d]pyrimidin-4-yl)(methyl)amino)pyrrolidin-1-yl)-3-(2-methylpyrimidin-4-yl)prop-2-en-1-one], for which, under setting [1], the IC50 fell in the range of 10 to 100 nM.

What is called IC50 is the midpoint of a concentration-inhibition curve.

Source of the values: patent US20250019387A1 (Frontier Medicines Corporation, priority 0001, published 2025).
